# According to ChEMBL document CHEMBL3102764, “Discovery of 3-(trifluoromethyl)-1H-pyrazole-5-carboxamide activators of the M2 isoform of pyruvate kinase (PKM2)” (Bioorg Med Chem Lett, 2014):
# How the values were obtained:
# Pyruvate kinase PKM [1] = target: T1, Pyruvate kinase PKM (Homo sapiens, UniProt P14618); test: Activation of PKM2 in human A549 cells; type: cell-based
# Target sequence in this assay (P14618 2-531 limits assumed): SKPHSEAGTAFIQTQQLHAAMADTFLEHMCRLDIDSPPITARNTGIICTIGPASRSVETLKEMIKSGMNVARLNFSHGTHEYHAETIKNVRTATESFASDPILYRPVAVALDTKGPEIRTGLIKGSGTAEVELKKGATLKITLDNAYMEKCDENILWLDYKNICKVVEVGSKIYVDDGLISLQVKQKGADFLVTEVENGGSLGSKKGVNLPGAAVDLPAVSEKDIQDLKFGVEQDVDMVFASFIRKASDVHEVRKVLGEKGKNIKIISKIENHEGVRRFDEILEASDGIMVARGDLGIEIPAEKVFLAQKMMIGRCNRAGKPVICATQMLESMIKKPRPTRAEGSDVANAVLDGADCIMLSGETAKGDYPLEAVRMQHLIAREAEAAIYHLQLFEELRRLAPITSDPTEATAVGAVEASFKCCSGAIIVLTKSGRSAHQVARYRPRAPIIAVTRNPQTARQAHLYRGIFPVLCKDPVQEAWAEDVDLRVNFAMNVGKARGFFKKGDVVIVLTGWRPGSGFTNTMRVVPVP
# Pyruvate kinase PKM [2] = target: T1, Pyruvate kinase PKM; test: Activation of PKM2 in human NCI-H1299 cells; type: cell-based
# Target sequence in this assay (P14618 2-531 limits assumed): as above
# Pyruvate kinase PKM [3] = target: T1, Pyruvate kinase PKM; test: Activation of PKM2 (unknown origin) assessed as PEP conversion to pyruvate measured as concentration required for 50% activation by luminescence assay
# Target sequence in this assay (P14618 whole entry): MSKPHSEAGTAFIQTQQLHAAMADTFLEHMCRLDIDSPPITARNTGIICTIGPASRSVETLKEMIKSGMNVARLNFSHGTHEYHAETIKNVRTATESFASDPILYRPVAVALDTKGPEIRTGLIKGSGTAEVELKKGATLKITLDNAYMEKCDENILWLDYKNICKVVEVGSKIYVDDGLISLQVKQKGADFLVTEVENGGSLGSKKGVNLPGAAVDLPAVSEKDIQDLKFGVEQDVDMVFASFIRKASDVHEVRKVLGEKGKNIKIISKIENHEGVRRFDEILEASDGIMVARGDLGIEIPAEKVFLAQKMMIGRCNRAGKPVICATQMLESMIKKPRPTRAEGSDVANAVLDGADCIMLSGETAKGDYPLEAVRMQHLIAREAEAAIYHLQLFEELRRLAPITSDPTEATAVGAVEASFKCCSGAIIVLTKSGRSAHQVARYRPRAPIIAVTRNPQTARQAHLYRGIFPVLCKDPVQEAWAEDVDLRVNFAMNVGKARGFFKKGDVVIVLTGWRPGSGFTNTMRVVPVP
structure (smiles),measurement,setting,value
O=C(c1cc(Cl)n[nH]1)N(Cc1ccc(O)cc1F)CC1CCC1,Activity,Pyruvate kinase PKM [1],0.45 µM
same,Activity,Pyruvate kinase PKM [2],0.3 µM
N#Cc1ccc(CN(CC2CCC2)C(=O)c2cc(Br)c[nH]2)cc1,AC50,Pyruvate kinase PKM [3],Not Active
COc1ccc(CN(CC2CCC2)C(=O)c2cc(Br)c[nH]2)cc1,AC50,Pyruvate kinase PKM [3],Not Active
O=C(c1cc(Br)c[nH]1)N(Cc1ccccc1)CC1CC1,AC50,Pyruvate kinase PKM [3]; read-out: AC50,12.2 µM
O=C(c1cc(Br)c[nH]1)N(Cc1cccc(O)c1)CC1CCC1,AC50,Pyruvate kinase PKM [3]; read-out: AC50,3.03 µM
O=C(c1cc(Br)c[nH]1)N(Cc1ccccc1)CC1CCCCC1,AC50,Pyruvate kinase PKM [3],Not Active
CCCCN(Cc1ccccc1)C(=O)c1cc(Br)c[nH]1,AC50,Pyruvate kinase PKM [3]; read-out: AC50,6.33 µM
O=C(NCc1ccccc1)c1cc(Br)c[nH]1,AC50,Pyruvate kinase PKM [3]; read-out: AC50,36 µM
O=C(c1cc(Br)n[nH]1)N(Cc1cccc2[nH]c(=O)sc12)CC1CCC1,AC50,Pyruvate kinase PKM [3]; read-out: AC50,3.05 µM
same,Activity,Pyruvate kinase PKM [1],12.9 µM
same,Activity,Pyruvate kinase PKM [2],16.6 µM
O=C(c1cc(Br)c[nH]1)N(Cc1ccc(O)cc1F)CC1CCC1,AC50,Pyruvate kinase PKM [3]; read-out: AC50,0.75 µM
O=C(c1cc(Br)c[nH]1)N(Cc1cccc(F)c1)CC1CCC1,AC50,Pyruvate kinase PKM [3]; read-out: AC50,3.85 µM
CCCCCN(Cc1ccccc1)C(=O)c1cc(Br)c[nH]1,AC50,Pyruvate kinase PKM [3]; read-out: AC50,4.45 µM
O=C(c1cc(Br)c[nH]1)N(Cc1ccccc1O)CC1CCC1,AC50,Pyruvate kinase PKM [3]; read-out: AC50,1.29 µM
CCCN(Cc1ccccc1)C(=O)c1cc(Br)c[nH]1,AC50,Pyruvate kinase PKM [3]; read-out: AC50,6 µM
O=C(c1cc(Br)c[nH]1)N(Cc1ccc(F)cc1)CC1CCC1,AC50,Pyruvate kinase PKM [3]; read-out: AC50,12.1 µM
O=C(c1cc(C(F)(F)F)n[nH]1)N(Cc1ccc(O)cc1F)CC1CCC1,Activity,Pyruvate kinase PKM [1],0.26 µM
same,Activity,Pyruvate kinase PKM [2],0.22 µM
O=C(c1cc(Br)c[nH]1)N(Cc1ccccc1F)CC1CCC1,AC50,Pyruvate kinase PKM [3]; read-out: AC50,3.9 µM
O=C(c1cc(Br)n[nH]1)N(Cc1ccc(O)cc1F)CC1CCC1,AC50,Pyruvate kinase PKM [3]; read-out: AC50,0.034 µM
same,Activity,Pyruvate kinase PKM [1],0.06 µM
same,Activity,Pyruvate kinase PKM [2],0.055 µM
Nc1ccc(CN(CC2CCC2)C(=O)c2cc(Br)c[nH]2)cc1,AC50,Pyruvate kinase PKM [3],Not Active
O=C(c1cc(Br)c[nH]1)N(Cc1ccc(O)cc1)CC1CCC1,AC50,Pyruvate kinase PKM [3]; read-out: AC50,1.71 µM
O=C(c1cc(Br)n[nH]1)N(Cc1cccc2[nH]cnc12)CC1CCC1,Activity,Pyruvate kinase PKM [1],1.99 µM
same,Activity,Pyruvate kinase PKM [2],1.42 µM
O=C(c1cc(Br)c[nH]1)N(Cc1ccc(Cl)cc1)CC1CCC1,AC50,Pyruvate kinase PKM [3],Not Active
O=C(c1cc(Br)n[nH]1)N(Cc1cccc2[nH]ncc12)CC1CCC1,AC50,Pyruvate kinase PKM [3]; read-out: AC50,3.13 µM
O=C(c1cc(Br)c[nH]1)N(Cc1ccccc1)CC1CCC1,AC50,Pyruvate kinase PKM [3]; read-out: AC50,2.3 µM
CCN(Cc1ccccc1)C(=O)c1cc(Br)c[nH]1,AC50,Pyruvate kinase PKM [3],Not Active
O=C(c1cc(Br)c[nH]1)N(Cc1ccccc1)CC1CCCC1,AC50,Pyruvate kinase PKM [3],Not Active
N#Cc1cc(C(=O)N(Cc2ccc(O)cc2F)CC2CCC2)[nH]n1,AC50,Pyruvate kinase PKM [3]; read-out: AC50,4.47 µM
O=C(c1cc(C(F)(F)F)n[nH]1)N(Cc1cccc2[nH]ccc12)CC1CCC1,Activity,Pyruvate kinase PKM [1],0.308 µM
same,Activity,Pyruvate kinase PKM [2],0.364 µM
O=C(c1cc(Cl)n[nH]1)N(Cc1cccc2[nH]ncc12)CC1CCC1,AC50,Pyruvate kinase PKM [3]; read-out: AC50,2.93 µM
same,Activity,Pyruvate kinase PKM [1],5.94 µM
same,Activity,Pyruvate kinase PKM [2],6.4 µM
Nc1cc(C(=O)N(Cc2ccc(O)cc2F)CC2CCC2)[nH]n1,AC50,Pyruvate kinase PKM [3]; read-out: AC50,> 30 µM
O=C(c1cc(Cl)n[nH]1)N(Cc1cccc2[nH]ccc12)CC1CCC1,AC50,Pyruvate kinase PKM [3]; read-out: AC50,0.757 µM
same,Activity,Pyruvate kinase PKM [1],6.73 µM
